Measured values published in patent US11458189B2, “Cytoprotective drugs” (BALMES TRANSPLANTATION, priority 2017, dated 2022).
Starred links: 1 amine or outer side, 2 acyl side, 3 side chain; linkers in the order of their positions; H or OH if unused. Positions of bridges follow the written chain, without caps; N, C: chain ends. Non-standard residues stand in square brackets, D forms with d. Residues, ends and D or L forms follow the SMILES beside them. *: point of attachment. hTyr(3S-OH,4S-OH,3'-OSO3H) = N[C@H](C(=O)O)[C@H](O)[C@@H](O)c1ccc(O)c(OS(=O)(=O)O)c1; Orn(4R-OH,5R-OH) = O=C([C@H](C[C@@H](O)[C@@H](O)N[*:3])N[*:1])[*:2]; Pro(3S-OH,4S-Me) = C[C@H]1CN[C@H](C(=O)O)[C@H]1O; X1 = CCCCCOc1ccc(-c2cc(-c3ccc(C(=O)*)cc3)no2)cc1; Gln(3R-OH) = NC(=O)C[C@@H](O)[C@H](N)C(=O)O; Hyp = O=C(O)[C@@H]1C[C@@H](O)CN1

System: Human Hepatic Sinusoidal Endothelial Cells (HHSEC)
Experiment: Oxygen and glucose deprivation followed by replenishment, cell survival (calcein AM), HHSEC
Assay type: cell-based
Experimental: Anidulafungin and micafungin were tested on Human Renal Glomerular Endothelial Cells (HRGEC, Innoprot P10665), on Human Renal Proximal Tubular Epithelial Cells (HRPTEpiC, Innoprot P10662), on Human Astrocytes (HA, caltag SC-1800), on Human Cardiac Microvascular Endothelial Cells (HCMEC, Caltag SC-6000), on Human Hepatic Sinusoidal Endothelial Cells (HHSEC, Caltag SC-5000), on Rat Primary Kidney Glomerular Endothelial cells (Cellbiologics, RN-6014G) and on Bovine Brain Microvascular Endothelial Cells (BBMEC, Caltag SC-B100).
In a first phase, these isolated, purified and cryopreserved cells are thawed and multiplied according to the supplier's recommendations in T75 or T175 flasks pre-coated with 2 μg of fibronectin/[…] (CORNING) for HRGEC, HCMEC, HHSEC and BBMEC, or 2 μg poly-L-lysin/cm^2 (Caltag SC-0403) for HRPTEpiC and HA, or 15 mL/flask 175 cm^2 gelatin-based solution (Cellbiologics) in the presence of endothelial cell supplemented growth medium ECM (P60104, INNOPROT, Caltag, SC-1001) for HRGEC, HCMEC, HHSEC, RPKGEC or BBMEC, or astrocyte cell supplemented growth medium AM (Caltag SC-1801) for HA or epithelial cell supplemented growth medium EpiCM (P60106, INNOPROT) for HRPTEpiC, at 37° C. under 5% CO2 and saturated humidity until their confluency. They are then harvested by trypsinization according to the method described by the supplier for exactly 5 minutes and then reseeded in new flasks a maximum of three times.
To carry out the oxygen and glucose deprivation test followed by their replenishment, the cells will be seeded in 96-well black plates with transparent flat bottom (GREINER). Once a sufficient number of cells has been obtained to allow seeding of 2000 to 15000 cells per well of 96-well plates depending on the cell type, the cells are seeded in these 96-well plates previously coated with an extracellular matrix as listed above for the flasks. The cells are cultured for 5 to 8 days according to the cell type, in the presence of the same growth medium as in the flask as described above except for HRGEC and HRPTEpiC for which DMEM (DUTSCHER) with 1 g/L of supplemented glucose is used, at 37° C. under 5% CO2 and saturated humidity to obtain confluency.
On the first day of oxygen and glucose deprivation, (5th, 6th, 7th or 8th day of culture), the culture conditions are drastically changed. The medium of all plates is removed and replaced by DMEM (DUTSCHER) medium without glucose and supplemented only with 1% penicillin-streptomycin (DUTSCHER). Anidulafungin or micafungin dissolved in dimethyl sulfoxide (DMSO) is then added to each well at the desired concentration, resulting in a maximum of 1% DMSO, and the plates are placed under hypoxia at <1% 02 and 5% CO2 at 37° C. for 24 hours of culture. Each compound was tested in a concentration range.
After 24 hours, the growth medium is changed and replaced by a richer medium, DMEM (DUTSCHER) at 1 g/L glucose and 2% FBS (INNOPROT) and 1% penicillin-streptomycin (DUTSCHER). These media will have been pre-equilibrated at 37° C. in advance. The cells are then returned to culture at 37° C. under 20% 02 and 5% CO2 for 22h.
After 22 hours of reoxygenation, the potential protective effect of anidulafungin or micafungin is measured by a cell viability test using calcein AM (CORNING), which is a dye substrate. The calcein AM can easily cross the cell membrane of the viable cells. The AM ester groups mask the part of the molecule that chelates calcium. Once inside the cells, the (non-fluorescent) calcein AM is hydrolyzed to (fluorescent) calcein by endogenous esterases. The resulting calcein molecule binds to calcium inside the cell and remains trapped inside the cell. These molecules emit strong green fluorescence when subjected to […] of a particular wavelength (495 nm). Since dead cells lack esterase activity, only living cells are labelled.
This cell viability test is performed in two steps. […]

[1] = [Micafungin] log μM 0 (first line printed 0, r12)
[2] = [Micafungin] log μM 0 (second line printed 0, r14)

## CCCCCOc1ccc(-c2cc(-c3ccc(C(=O)N[C@H]4C[C@@H](O)[C@@H](O)NC(=O)[C@@H]5[C@@H](O)[C@@H](C)CN5C(=O)[C@H]([C@H](O)CC(N)=O)NC(=O)[C@H]([C@H](O)[C@@H](O)c5ccc(O)c(OS(=O)(=O)O)c5)NC(=O)[C@@H]5C[C@@H](O)CN5C(=O)[C@H]([C@@H](C)O)NC4=O)cc3)no2)cc1 [Micafungin, {5-[(1S,2S)-2-[(3S,6S,9S,11R,15S,18S,20R,21R,24S,25S,26S)-3-[(1R)-2-carbamoyl-1-hydroxyethyl]-11,20,21,25-tetrahydroxy-15-[(1R)-1-hydroxyethyl]-26-methyl-2,5,8,14,17,23-hexaoxo-18-[(4-{5-[4-(pentyloxy)phenyl]-1,2-oxazol-3-yl}benzene)amido]-1,4,7,13,16,22-hexaazatricyclo[22.3.0.0]heptacosan-6-yl]-1,2-dihydroxyethyl]-2-hydroxyphenyl}oxidanesulfonic acid] (X1-[Orn(4R-OH,5R-OH)]T[Hyp][hTyr(3S-OH,4S-OH,3'-OSO3H)][Gln(3R-OH)][Pro(3S-OH,4S-Me)]; lactam 1-C)
[1]
  Globalfluo assay 1: 2600496 arbitrary units
  Globalfluo assay 2: 2592730 arbitrary units
  Globalfluo assay 3: 2666315 arbitrary units
  Mean globalfluo: 2619847 arbitrary units
  Survival rate (%): 0%
[2]
  Globalfluo assay 1: 3063920 arbitrary units
  Globalfluo assay 2: 2647280 arbitrary units
  Globalfluo assay 3: 2608353 arbitrary units
  Mean globalfluo: 2773184 arbitrary units
  Survival rate (%): 1%
[Micafungin] log μM 0.4771213
  Globalfluo assay 1: 2619032 arbitrary units
  Globalfluo assay 2: 2696453 arbitrary units
  Globalfluo assay 3: 2858592 arbitrary units
  Mean globalfluo: 2724692 arbitrary units
  Survival rate (%): 1%
[Micafungin] log μM 0.7781513
  Globalfluo assay 1: 2942319 arbitrary units
  Globalfluo assay 2: 3052699 arbitrary units
  Globalfluo assay 3: 2975927 arbitrary units
  Mean globalfluo: 2990315 arbitrary units
  Survival rate (%): 2%
[Micafungin] log μM 0.90309
  Globalfluo assay 1: 2800146 arbitrary units
  Globalfluo assay 2: 3162662 arbitrary units
  Globalfluo assay 3: 3203256 arbitrary units
  Mean globalfluo: 3055355 arbitrary units
  Survival rate (%): 3%
[Micafungin] log μM 1
  Globalfluo assay 1: 3210890 arbitrary units
  Globalfluo assay 2: 3369543 arbitrary units
  Globalfluo assay 3: 2819931 arbitrary units
  Mean globalfluo: 3133455 arbitrary units
  Survival rate (%): 3%
[Micafungin] log μM 1.079181
  Globalfluo assay 1: 3383806 arbitrary units
  Globalfluo assay 2: 3457745 arbitrary units
  Globalfluo assay 3: 3493598 arbitrary units
  Mean globalfluo: 3445050 arbitrary units
  Survival rate (%): 5%
[Micafungin] log μM 1.176091
  Globalfluo assay 1: 3454603 arbitrary units
  Globalfluo assay 2: 3676802 arbitrary units
  Globalfluo assay 3: 3618017 arbitrary units
  Mean globalfluo: 3583141 arbitrary units
  Survival rate (%): 6%
[Micafungin] log μM 1.30103
  Globalfluo assay 1: 3383992 arbitrary units
  Globalfluo assay 2: 2974781 arbitrary units
  Globalfluo assay 3: 3188414 arbitrary units
  Mean globalfluo: 3182396 arbitrary units
  Survival rate (%): 3%
[Micafungin] log μM −2
  Globalfluo assay 1: 2651037 arbitrary units
  Globalfluo assay 2: 2880244 arbitrary units
  Globalfluo assay 3: 2908835 arbitrary units
  Mean globalfluo: 2813372 arbitrary units
  Survival rate (%): 1%
